Source: ChEMBL document CHEMBL4421717, “Antagonists and agonists of bitter taste receptors and uses thereof” (2012)
Calls of active or inactive are those of the source. The rule behind the calls is not given here.

Assays:
Format in all cases: functional, cell-based
[1] = molecular target: T1, Taste receptor type 2 member 46 (Homo sapiens, UniProt P59540); assay: Antagonist activity at recombinant human N-terminal rat ST3 receptor-fused TAS2R46 expressed in HEK293T cells co-expressing Galpha16gust44 assessed as inhibition of 300 uM picrotoxinin-induced intracellular calcium level 100 uM by FLIPR assay
T1 sequence (P59540 whole entry): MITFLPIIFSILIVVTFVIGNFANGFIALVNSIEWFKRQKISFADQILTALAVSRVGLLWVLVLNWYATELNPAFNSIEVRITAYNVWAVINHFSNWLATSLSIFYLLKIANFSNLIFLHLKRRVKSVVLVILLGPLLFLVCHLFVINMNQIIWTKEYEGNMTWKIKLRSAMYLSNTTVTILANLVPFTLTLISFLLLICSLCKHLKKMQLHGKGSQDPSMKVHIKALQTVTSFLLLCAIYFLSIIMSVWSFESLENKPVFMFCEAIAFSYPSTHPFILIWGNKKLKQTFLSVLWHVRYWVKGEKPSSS

[2] = molecular target: Taste receptor type 2 member 19 (Homo sapiens) (UniProt P59542); assay: Agonist activity at recombinant human N-terminal rat ST3 receptor-fused TAS2R48 expressed in HEK293T cells co-expressing Galpha16gust44 assessed as effect on intracellular calcium level at 100 uM by FLIPR assay
[3] = molecular target: Taste receptor type 2 member 31 (Homo sapiens, UniProt P59538); assay: Agonist activity at recombinant human N-terminal rat ST3 receptor-fused TAS2R44 expressed in HEK293T cells co-expressing Galpha16gust44 assessed as effect on intracellular calcium level by FLIPR assay
[4] = molecular target: T2, Taste receptor type 2 member 1 (Homo sapiens) (UniProt Q9NYW7); assay: Agonist activity at recombinant human N-terminal rat ST3 receptor-fused TAS2R1 expressed in HEK293T cells co-expressing Galpha16gust44 assessed as effect on intracellular calcium level at 100 uM by FLIPR assay
T2 sequence (whole entry): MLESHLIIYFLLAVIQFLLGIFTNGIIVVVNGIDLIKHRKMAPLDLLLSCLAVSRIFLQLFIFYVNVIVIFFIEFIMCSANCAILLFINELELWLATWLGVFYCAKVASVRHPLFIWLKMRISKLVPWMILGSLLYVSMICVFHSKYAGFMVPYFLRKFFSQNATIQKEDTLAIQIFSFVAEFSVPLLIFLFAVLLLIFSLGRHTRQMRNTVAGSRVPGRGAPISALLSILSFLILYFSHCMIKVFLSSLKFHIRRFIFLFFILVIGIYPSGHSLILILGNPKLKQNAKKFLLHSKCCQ

[5] = molecular target: T3, Taste receptor type 2 member 38 (Homo sapiens) (UniProt P59533); assay: Agonist activity at recombinant human N-terminal rat ST3 receptor-fused TAS2R38 expressed in HEK293T cells co-expressing Galpha16gust44 assessed as effect on intracellular calcium level at 100 uM by FLIPR assay
T3 sequence (whole entry): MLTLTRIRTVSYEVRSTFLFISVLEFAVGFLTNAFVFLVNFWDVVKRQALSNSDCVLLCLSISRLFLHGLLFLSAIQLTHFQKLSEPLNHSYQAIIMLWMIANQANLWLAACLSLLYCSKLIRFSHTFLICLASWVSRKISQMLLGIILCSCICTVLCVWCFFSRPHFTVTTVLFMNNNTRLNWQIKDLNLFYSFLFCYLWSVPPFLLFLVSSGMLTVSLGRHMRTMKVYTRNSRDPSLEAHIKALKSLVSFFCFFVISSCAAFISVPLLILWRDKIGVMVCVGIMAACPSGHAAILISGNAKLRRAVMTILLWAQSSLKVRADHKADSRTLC

[6] = molecular target: T4, Taste receptor type 2 member 4 (Homo sapiens) (UniProt Q9NYW5); assay: Agonist activity at recombinant human N-terminal rat ST3 receptor-fused TAS2R4 expressed in HEK293T cells co-expressing Galpha16gust44 assessed as effect on intracellular calcium level at 100 uM by FLIPR assay
T4 sequence (whole entry): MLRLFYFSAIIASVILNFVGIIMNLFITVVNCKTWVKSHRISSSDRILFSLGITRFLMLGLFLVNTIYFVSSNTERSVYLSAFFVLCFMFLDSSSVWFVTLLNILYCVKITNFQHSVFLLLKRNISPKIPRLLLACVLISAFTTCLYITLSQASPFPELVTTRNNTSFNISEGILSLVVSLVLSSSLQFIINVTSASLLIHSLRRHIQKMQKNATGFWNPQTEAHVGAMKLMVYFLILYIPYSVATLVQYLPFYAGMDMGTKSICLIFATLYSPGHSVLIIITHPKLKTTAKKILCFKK

[7] = molecular target: T5, Taste receptor type 2 member 13 (Homo sapiens) (UniProt Q9NYV9); assay: Agonist activity at recombinant human N-terminal rat ST3 receptor-fused TAS2R13 expressed in HEK293T cells co-expressing Galpha16gust44 assessed as effect on intracellular calcium level at 100 uM by FLIPR assay
T5 sequence (whole entry): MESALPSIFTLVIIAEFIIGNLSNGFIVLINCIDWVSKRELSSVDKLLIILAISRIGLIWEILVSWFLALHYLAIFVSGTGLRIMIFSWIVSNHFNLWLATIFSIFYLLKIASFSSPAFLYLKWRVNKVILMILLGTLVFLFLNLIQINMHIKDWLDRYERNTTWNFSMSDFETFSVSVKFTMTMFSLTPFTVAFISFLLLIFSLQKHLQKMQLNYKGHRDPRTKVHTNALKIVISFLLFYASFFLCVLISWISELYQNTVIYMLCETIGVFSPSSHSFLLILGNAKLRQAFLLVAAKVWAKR

[8] = molecular target: Taste receptor type 2 member 41 (Homo sapiens) (UniProt P59536); assay: Agonist activity at recombinant human N-terminal rat ST3 receptor-fused TAS2R41 expressed in HEK293T cells co-expressing Galpha16gust44 assessed as effect on intracellular calcium level at 100 uM by FLIPR assay
[9] = molecular target: Taste receptor type 2 member 31 (Homo sapiens) (UniProt P59538); assay: Agonist activity at recombinant human N-terminal rat ST3 receptor-fused TAS2R44 expressed in HEK293T cells co-expressing Galpha16gust44 assessed as effect on intracellular calcium level at 100 uM by FLIPR assay
[10] = molecular target: T6, Taste receptor type 2 member 50 (Homo sapiens) (UniProt P59544); assay: Agonist activity at recombinant human N-terminal rat ST3 receptor-fused TAS2R50 expressed in HEK293T cells co-expressing Galpha16gust44 assessed as effect on intracellular calcium level at 100 uM by FLIPR assay
T6 sequence (whole entry): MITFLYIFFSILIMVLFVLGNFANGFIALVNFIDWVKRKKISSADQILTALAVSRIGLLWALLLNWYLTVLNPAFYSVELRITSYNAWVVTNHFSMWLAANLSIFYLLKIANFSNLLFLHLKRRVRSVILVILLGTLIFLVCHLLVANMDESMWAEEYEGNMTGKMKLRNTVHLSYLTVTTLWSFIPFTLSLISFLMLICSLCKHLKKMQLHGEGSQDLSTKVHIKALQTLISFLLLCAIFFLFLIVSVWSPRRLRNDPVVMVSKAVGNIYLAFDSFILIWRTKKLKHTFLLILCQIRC

Chain of Taste receptor type 2 member 41 (Homo sapiens) (P59536 whole entry, the tested form may be a part): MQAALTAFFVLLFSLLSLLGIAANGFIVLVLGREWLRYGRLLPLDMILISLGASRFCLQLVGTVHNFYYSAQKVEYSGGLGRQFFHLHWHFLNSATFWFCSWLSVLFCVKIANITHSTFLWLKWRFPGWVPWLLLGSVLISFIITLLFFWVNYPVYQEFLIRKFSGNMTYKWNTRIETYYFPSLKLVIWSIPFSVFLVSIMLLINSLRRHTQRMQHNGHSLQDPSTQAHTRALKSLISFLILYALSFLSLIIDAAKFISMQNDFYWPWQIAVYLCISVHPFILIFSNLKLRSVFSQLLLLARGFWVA
Chain of Taste receptor type 2 member 31 (Homo sapiens) (P59538 whole entry, the tested form may be a part): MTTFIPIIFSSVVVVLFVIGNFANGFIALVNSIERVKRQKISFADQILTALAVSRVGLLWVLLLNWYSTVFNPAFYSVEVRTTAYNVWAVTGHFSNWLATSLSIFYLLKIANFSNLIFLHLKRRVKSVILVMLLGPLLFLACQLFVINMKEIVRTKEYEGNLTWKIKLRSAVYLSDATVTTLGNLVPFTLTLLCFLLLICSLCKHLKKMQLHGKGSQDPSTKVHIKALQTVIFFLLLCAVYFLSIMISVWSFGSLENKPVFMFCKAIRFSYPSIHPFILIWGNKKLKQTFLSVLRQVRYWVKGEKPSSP
Chain of Taste receptor type 2 member 31 (P59538 whole entry, the tested form may be a part): as above
Chain of Taste receptor type 2 member 19 (Homo sapiens) (P59542 whole entry, the tested form may be a part): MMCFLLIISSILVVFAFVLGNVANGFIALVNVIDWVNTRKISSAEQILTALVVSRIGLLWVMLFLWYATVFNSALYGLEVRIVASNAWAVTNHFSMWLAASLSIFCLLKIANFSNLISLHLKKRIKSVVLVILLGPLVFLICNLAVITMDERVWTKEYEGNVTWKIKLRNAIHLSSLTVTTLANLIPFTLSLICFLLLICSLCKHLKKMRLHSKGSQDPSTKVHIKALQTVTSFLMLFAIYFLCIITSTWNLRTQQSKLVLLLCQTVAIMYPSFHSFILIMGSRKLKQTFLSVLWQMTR

| SMILES | IC50 [1] [µM] | Activity [2] | EC50 [3] [µM] | Activity [4] | Activity [5] | Activity [6] | Activity [7] | Activity [8] | Activity [9] | Activity [10] |
| --- | --- | --- | --- | --- | --- | --- | --- | --- | --- | --- |
| C/C1=C\C[C@H](O)[C@@H](C)C[C@H]2OC(=O)[C@@H](C)C2CC1 (stereo not given in full) | 22.9 |  |  |  |  |  |  |  |  |  |
| C/C1=C\C[C@H](O)/C(C)=C/[C@H]2OC(=O)[C@@H](C)C2CC1 (stereo not given in full) |  | inactive | 31.5 | Active | inactive | Active | inactive | inactive | Active | inactive |
